Measured values taken from ChEMBL document CHEMBL5338723, “Emerging Target-Directed Approaches for the Treatment and Diagnosis of Microbial Infections” (J Med Chem, 2023).
*1 amine or outer side, *2 acyl side, *3 side chain or, on linkers, in order; H or OH if unused. Where a SMILES comes first, the peptide text is derived from it. Side-chain parts run from the residue outwards. [ ]: non-standard residue; d: D form. The star is where a group is joined. X1 = Cn1c(=N)ccn([C@@H]2S[C@H]([C@@H](O)[C@@H](N[*:1])C(=O)[*:2])[C@H](O)[C@H]2O)c1=O; DAMPA = CN(Cc1cnc2nc(N)nc(N)c2n1)c1ccc(C(=O)*)cc1; Orn(N5-OH,N5-Ac) = CC(=O)N(O)CCC[C@H](N)C(=O)O; γGlu = O=C(O)[C@H](CCC(=O)[*:2])N[*:1]; Ethylenediamine = C(CN[*:2])N[*:1]

How the values were obtained:
[1] = tested on: Escherichia coli; assay: Antimicrobial activity against Escherichia coli BW25113 assessed as microbial growth inhibition; format: functional
[2] = tested on: Escherichia coli; assay: Antimicrobial activity against Escherichia coli IR57 assessed as microbial growth inhibition; format: functional
[3] = tested on: Escherichia coli; assay: Antimicrobial activity against Escherichia coli AR0114 assessed as microbial growth inhibition; format: functional
[4] = tested on: Escherichia coli; assay: Antimicrobial activity against Escherichia coli JW0451-2 assessed as microbial growth inhibition; format: functional
[5] = tested on: Escherichia coli; assay: Antimicrobial activity against Escherichia coli ATCC BAA-2469 assessed as microbial growth inhibition; format: functional
[6] = tested on: Escherichia coli; assay: Antimicrobial activity against Escherichia coli NCTC 13846 assessed as microbial growth inhibition; format: functional
[7] = tested on: Enterococcus faecalis; assay: Antimicrobial activity against vancomycin-resistant Enterococcus faecalis ATCC 51575 assessed as microbial growth inhibition; format: functional
[8] = tested on: Escherichia coli; assay: Antimicrobial activity against Escherichia coli AR0494 assessed as microbial growth inhibition; format: functional
[9] = tested on: Escherichia coli; assay: Antimicrobial activity against Escherichia coli B096a assessed as microbial growth inhibition; format: functional
[10] = tested on: Escherichia coli; assay: Antimicrobial activity against Escherichia coli AR089 assessed as microbial growth inhibition; format: functional
[11] = tested on: Acinetobacter baumannii; assay: Antimicrobial activity against Acinetobacter baumannii GS2AB1 assessed as microbial growth inhibition; format: functional
[12] = tested on: Staphylococcus aureus; assay: Antimicrobial activity against methicillin-resistant Staphylococcus aureus ATCC 33591 assessed as microbial growth inhibition; format: functional
[13] = tested on: Acinetobacter baumannii; assay: Antimicrobial activity against Acinetobacter baumannii Naval-81 assessed as microbial growth inhibition; format: functional
[14] = tested on: Escherichia coli; assay: Antimicrobial activity against Escherichia coli AR0137 assessed as microbial growth inhibition; format: functional
[15] = tested on: Escherichia coli; assay: Antimicrobial activity against Escherichia coli NCTC 13441 assessed as microbial growth inhibition; format: functional
[16] = tested on: Escherichia coli; assay: Antimicrobial activity against Escherichia coli ATCC 25922 assessed as microbial growth inhibition; format: functional
[17] = tested on: Escherichia coli; assay: Antimicrobial activity against Escherichia coli Swiss 15 assessed as microbial growth inhibition; format: functional
[18] = tested on: Escherichia coli; assay: Antimicrobial activity against Escherichia coli Swiss 2 (AF45) assessed as microbial growth inhibition; format: functional
[19] = tested on: Escherichia coli; assay: Antimicrobial activity against Escherichia coli AR055 assessed as microbial growth inhibition; format: functional
[20] = tested on: Acinetobacter baumannii; assay: Antimicrobial activity against Acinetobacter baumannii ACC00527 assessed as microbial growth inhibition; format: functional
[21] = tested on: Escherichia coli; assay: Antimicrobial activity against Escherichia coli ExPEC H5 assessed as microbial growth inhibition; format: functional
[22] = tested on: Staphylococcus aureus; assay: Antimicrobial activity against vancomycin intermediate Staphylococcus aureus assessed as microbial growth inhibition; format: functional
[23] = tested on: Escherichia coli; assay: Antimicrobial activity against Escherichia coli AR0349 assessed as microbial growth inhibition; format: functional
[24] = tested on: Escherichia coli; assay: Antimicrobial activity against Escherichia coli ATCC BAA-2340 assessed as microbial growth inhibition; format: functional
[25] = tested on: Enterococcus faecium; assay: Antimicrobial activity against vancomycin-resistant Enterococcus faecium ATCC 51559 assessed as microbial growth inhibition; format: functional
[26] = tested on: Escherichia coli; assay: Antimicrobial activity against Escherichia coli AR0350 assessed as microbial growth inhibition; format: functional
[27] = tested on: Escherichia coli; assay: Antimicrobial activity against Escherichia coli AR0150 assessed as microbial growth inhibition; format: functional
[28] = tested on: Escherichia coli; assay: Antimicrobial activity against Escherichia coli B808 assessed as microbial growth inhibition; format: functional
[29] = tested on: Escherichia coli; assay: Antimicrobial activity against Escherichia coli NCTC 13462 assessed as microbial growth inhibition; format: functional
[30] = tested on: Escherichia coli; assay: Antimicrobial activity against Escherichia coli UTI89 assessed as microbial growth inhibition; format: functional
[31] = tested on: Escherichia coli; assay: Antimicrobial activity against Escherichia coli H4/5 assessed as microbial growth inhibition; format: functional
[32] = tested on: Escherichia coli; assay: Antimicrobial activity against Escherichia coli IR3 assessed as microbial growth inhibition; format: functional
[33] = tested on: Escherichia coli; assay: Antimicrobial activity against Escherichia coli Swiss 13 assessed as microbial growth inhibition; format: functional
[34] = tested on: Escherichia coli; assay: Antimicrobial activity against Escherichia coli IR45 assessed as microbial growth inhibition; format: functional
[35] = tested on: Escherichia coli; assay: Antimicrobial activity against Escherichia coli AR0346 assessed as microbial growth inhibition; format: functional
[36] = tested on: Escherichia coli; assay: Antimicrobial activity against Escherichia coli AR0493 assessed as microbial growth inhibition; format: functional
[37] = tested on: Escherichia coli; assay: Antimicrobial activity against aroB/fepA negative Escherichia coli H873 assessed as microbial growth inhibition; format: functional
[38] = tested on: Escherichia coli; assay: Antimicrobial activity against Escherichia coli C600 harboring pHX405 plasmid assessed as microbial growth inhibition; format: functional
[39] = tested on: Escherichia coli; assay: Antimicrobial activity against aroB/fiu negative Escherichia coli H1594 assessed as microbial growth inhibition; format: functional
[40] = tested on: Klebsiella pneumoniae; assay: Antibacterial activity against Klebsiella pneumoniae assessed as microbial growth inhibition; format: functional
[41] = tested on: Escherichia coli; assay: Antimicrobial activity against Escherichia coli F assessed as microbial growth inhibition; format: functional
[42] = tested on: Escherichia coli; assay: Antimicrobial activity against fhuA negative Escherichia coli C600 assessed as microbial growth inhibition; format: functional
[43] = tested on: Escherichia coli; assay: Antimicrobial activity against Escherichia coli ML35p assessed as microbial growth inhibition; format: functional
[44] = tested on: Salmonella enteritidis; assay: Antimicrobial activity against Salmonella enterica subsp. enterica serovar Enteritidis assessed as increase in microbial growth inhibition; format: functional
[45] = tested on: Escherichia coli; assay: Antimicrobial activity against pTon positive Escherichia coli W3110-KP1344 harboring pMS7 assessed as microbial growth inhibition; format: functional
[46] = tested on: Escherichia coli; assay: Antimicrobial activity against aroB/cir negative Escherichia coli H2222 assessed as microbial growth inhibition; format: functional
[47] = tested on: Escherichia coli; assay: Antimicrobial activity against Escherichia coli B assessed as microbial growth inhibition; format: functional
[48] = tested on: Escherichia coli; assay: Antimicrobial activity against aroB/fepA/fiu negative Escherichia coli H1877 assessed as microbial growth inhibition; format: functional
[49] = tested on: Escherichia coli; assay: Antimicrobial activity against aroB/cir/fiu negative Escherichia coli H1728 assessed as microbial growth inhibition; format: functional
[50] = tested on: Escherichia coli; assay: Antimicrobial activity against Escherichia coli MC4100 assessed as microbial growth inhibition; format: functional
[51] = tested on: Enterobacter cloacae; assay: Antibacterial activity against Enterobacter cloacae; format: functional
[52] = tested on: Escherichia coli; assay: Antimicrobial activity against Escherichia coli W3110 assessed as microbial growth inhibition; format: functional
[53] = tested on: Escherichia coli; assay: Antimicrobial activity against aroB negative Escherichia coli H1443 assessed as microbial growth inhibition; format: functional
[54] = tested on: Escherichia coli; assay: Antimicrobial activity against exbB/exbD negative Escherichia coli W3110-6 assessed as microbial growth inhibition; format: functional
[55] = tested on: Escherichia coli; assay: Antimicrobial activity against aroB/fepA/cir negative Escherichia coli H1875 assessed as microbial growth inhibition; format: functional
[56] = tested on: Yersinia enterocolitica; assay: Antimicrobial activity against Yersinia enterocolitica assessed as microbial growth inhibition; format: functional
[57] = Potency index, ratio of test compound LD50 to methotrexate LD50 for cytotoxicity against human L02 cells; format: toxicity, cell-based
[58] = tested on: Streptococcus pneumoniae; assay: Antimicrobial activity against Streptococcus pneumoniae assessed as microbial growth inhibition; format: functional
[59] = Cytotoxicity against human L02 assessed as lethal dose; format: toxicity, cell-based; details: L02 cells, read-out: LD50 (the source's name)

CN[C@H](CC(C)C)C(=O)N[C@H]1C(=O)N[C@@H](CC(N)=O)C(=O)N[C@H]2C(=O)N[C@H]3C(=O)N[C@H](C(=O)N[C@H](C(=O)O)c4cc(O)cc(O)c4-c4cc3ccc4O)[C@H](O)c3ccc(c(Cl)c3)Oc3cc2cc(c3O[C@@H]2O[C@H](CO)[C@@H](O)[C@H](O)[C@H]2O[C@H]2C[C@](C)(N)[C@H](O)[C@H](C)O2)Oc2ccc(cc2Cl)[C@H]1O [VANCOMYCIN]
750 µM: MIC [25]
13 µM: MIC [22]
0.63 µM: MIC [12]
64 µg/mL: MIC [1] | MIC [2] | MIC [3] | MIC [4] | MIC [5] | MIC [6] | MIC [8] | MIC [9] | MIC [10] | MIC [11] | MIC [13] | MIC [14] | MIC [15] | MIC [16] | MIC [17] | MIC [18] | MIC [19] | MIC [20] | MIC [21] | MIC [23] | MIC [24] | MIC [26] | MIC [27] | MIC [28] | MIC [29] | MIC [30] | MIC [31] | MIC [32] | MIC [33] | MIC [34] | MIC [35] | MIC [36]
250 µM: MIC [7]

CC(=O)N(O)CCC[C@H](NC(=O)[C@H](CCCN(O)C(C)=O)NC(=O)[C@@H](N)CCCN(O)C(C)=O)C(=O)N[C@@H](CO)C(=O)N[C@@H](C(=O)O)[C@H](O)[C@H]1S[C@@H](n2ccc(=N)n(C)c2=O)[C@H](O)[C@H]1O (H-[Orn(N5-OH,N5-Ac)][Orn(N5-OH,N5-Ac)][Orn(N5-OH,N5-Ac)]S[X1]-OH)
0.04 µM: MIC [37] | MIC [38] | MIC [39] | MIC [40] | MIC [41] | MIC [42] | MIC [43] | MIC [44] | MIC [45] | MIC [46] | MIC [47] | MIC [48] | MIC [49] | MIC [50] | MIC [51] | MIC [52] | MIC [53] | MIC [54] | MIC [55]

CC(=O)N(O)CCC[C@H](NC(=O)[C@H](CCCN(O)C(C)=O)NC(=O)[C@@H](N)CCCN(O)C(C)=O)C(=O)N[C@@H](CCC(=O)NCCNC(=O)CC[C@H](NC(=O)c1ccc(N(C)Cc2cnc3nc(N)nc(N)c3n2)cc1)C(=O)O)C(=O)O (H-[Orn(N5-OH,N5-Ac)][Orn(N5-OH,N5-Ac)][Orn(N5-OH,N5-Ac)]E([Ethylenediamine-γGlu-DAMPA])-OH)
0.00172 µM: MIC [58]
2310: selectivity ratio [57]
0.00684 µM: MIC [56]
18.5 µM: CC50 [59]
